Source: patent publication US12365655B2, “Compounds” (CTXT PTY LTD, priority 2018, dated 2025)

Tests used:
TIP60-KAT5 = TIP60-KAT5 (Homo sapiens, UniProt Q92993); test: Acetyltransferase biochemical assay (AlphaScreen), KAT5
HBO-KAT7 = HBO-KAT7 (Homo sapiens, UniProt O95251); test: Acetyltransferase biochemical assay (AlphaScreen), KAT7
MOZ-KAT6A = MOZ-KAT6A (Homo sapiens, UniProt Q92794, A567V); test: Acetyltransferase biochemical assay (AlphaScreen), KAT6A
Sequence of MOZ-KAT6A (Q92794 with tags, fused parts or gaps A567V): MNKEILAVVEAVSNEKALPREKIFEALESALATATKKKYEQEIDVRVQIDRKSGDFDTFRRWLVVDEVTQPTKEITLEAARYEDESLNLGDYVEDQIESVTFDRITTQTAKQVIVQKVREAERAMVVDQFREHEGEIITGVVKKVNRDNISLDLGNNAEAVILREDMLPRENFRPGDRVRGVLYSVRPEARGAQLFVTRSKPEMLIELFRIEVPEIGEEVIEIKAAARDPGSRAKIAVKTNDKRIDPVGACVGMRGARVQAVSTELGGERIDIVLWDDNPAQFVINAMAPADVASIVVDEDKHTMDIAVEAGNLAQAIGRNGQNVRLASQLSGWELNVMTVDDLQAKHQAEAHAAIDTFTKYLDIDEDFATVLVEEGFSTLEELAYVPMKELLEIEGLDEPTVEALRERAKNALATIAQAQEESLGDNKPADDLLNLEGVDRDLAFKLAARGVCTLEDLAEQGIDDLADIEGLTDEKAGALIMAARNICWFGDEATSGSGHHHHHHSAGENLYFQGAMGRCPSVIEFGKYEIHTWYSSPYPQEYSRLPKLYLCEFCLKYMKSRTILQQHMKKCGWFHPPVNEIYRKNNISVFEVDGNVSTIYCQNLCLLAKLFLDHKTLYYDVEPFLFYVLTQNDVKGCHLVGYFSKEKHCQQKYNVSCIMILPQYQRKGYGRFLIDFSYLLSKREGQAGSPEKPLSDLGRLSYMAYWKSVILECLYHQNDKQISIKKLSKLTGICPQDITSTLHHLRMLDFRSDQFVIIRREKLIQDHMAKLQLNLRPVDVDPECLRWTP

Sequence of TIP60-KAT5 (Q92993 with tags, fused parts or gaps isoform Q92993-2): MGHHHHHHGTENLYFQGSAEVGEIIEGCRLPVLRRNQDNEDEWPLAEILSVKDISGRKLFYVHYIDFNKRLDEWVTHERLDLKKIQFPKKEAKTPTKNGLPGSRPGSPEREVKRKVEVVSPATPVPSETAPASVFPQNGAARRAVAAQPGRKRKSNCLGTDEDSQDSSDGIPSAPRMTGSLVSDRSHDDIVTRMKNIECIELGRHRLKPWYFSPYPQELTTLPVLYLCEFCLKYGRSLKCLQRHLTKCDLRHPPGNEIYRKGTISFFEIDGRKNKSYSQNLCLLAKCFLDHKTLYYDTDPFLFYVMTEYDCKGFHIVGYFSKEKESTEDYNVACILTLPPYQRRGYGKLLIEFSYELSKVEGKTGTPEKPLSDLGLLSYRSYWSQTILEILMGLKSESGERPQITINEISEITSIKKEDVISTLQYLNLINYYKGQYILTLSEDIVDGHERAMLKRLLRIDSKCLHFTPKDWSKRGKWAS
Sequence of HBO-KAT7 (O95251 with tags, fused parts or gaps): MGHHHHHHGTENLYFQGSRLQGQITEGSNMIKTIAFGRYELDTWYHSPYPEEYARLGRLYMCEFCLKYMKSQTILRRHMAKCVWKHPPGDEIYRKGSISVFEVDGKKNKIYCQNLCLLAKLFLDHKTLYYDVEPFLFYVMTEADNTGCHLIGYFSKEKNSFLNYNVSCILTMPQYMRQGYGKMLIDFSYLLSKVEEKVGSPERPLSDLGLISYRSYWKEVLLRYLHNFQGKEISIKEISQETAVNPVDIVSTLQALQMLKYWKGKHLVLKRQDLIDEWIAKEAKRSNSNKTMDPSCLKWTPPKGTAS

Row | Structure (SMILES) | IC50 (TIP60-KAT5) [µM] | IC50 (HBO-KAT7) [µM] | IC50 (MOZ-KAT6A) [µM]
1 | O=S(=O)(Nc1noc2ccccc12)c1cccc(Cl)c1Cl [Example 60, N-(benzo[d]isoxazol-3-yl)-2,3-dichlorobenzene-sulfonamide] | > 125 | > 125 | 116
2 | O=S(=O)(Nc1noc2ccccc12)c1ccc(Cl)c(Cl)c1 [Example 61, N-(benzo[d]isoxazol-3-yl)-3,4-dichlorobenzene-sulfonamide] | 85.4 | > 125 | 51.9
3 | O=S(=O)(Nc1noc2ccccc12)c1ccc(Cl)cc1Cl [Example 62, N-(benzo[d]isoxazol-3-yl)-2,4-dichlorobenzene-sulfonamide] | > 125 | 70.6 | 43.7
4 | CCc1ccc(OC)c(S(=O)(=O)Nc2noc3ccccc23)c1 [Example 63, N-(benzo[d]isoxazol-3-yl)-5-ethyl-2-methoxy benzene-sulfonamide] | > 125 | 60.1 | 2.56
5 | O=S(=O)(Nc1noc2ccccc12)c1ccc2c(c1)CCC2 [Example 64, N-(benzo[d]isoxazol-3-yl)-2,3-dihydro-1H-indene-5-sulfonamide] | > 125 | 106 | 26.7
6 | O=S(=O)(Nc1noc2ccccc12)c1ccc2c(c1)CCCC2 [Example 65, N-(benzo[d]isoxazol-3-yl)-5,6,7,8-tetrahydro-naphthalene-2-sulfonamide] | > 125 | 59.7 | 27.9
7 | O=S(=O)(Nc1noc2ccccc12)c1ccc2ccccc2c1 [Example 66, N-(benzo[d]isoxazol-3-yl)naphthalene-2-sulfonamide] | 123 | 114 | 14.6
8 | Cc1nnc(-c2cccc(S(=O)(=O)Nc3noc4ccccc34)c2)o1 [Example 67, N-(benzo[d]isoxazol-3-yl)-3-(5-methyl-1,3,4-oxadiazol-2-yl)benzene sulfonamide] | 115 | > 125 | 22.7
9 | O=S(=O)(Nc1noc2ccccc12)c1ccc(Br)cn1 [Example 68, N-(benzo[d]isoxazol- -3-yl)-5-bromopyridine-2-sulfonamide] | > 125 | > 125 | 85.1
10 | O=S(=O)(Nc1noc2ccccc12)c1ccc(-c2ccccc2)cc1 [Example 69, N-(benzo[d]isoxazol-3-yl)-[1,1-biphenyl]-4-sulfonamide] | 124 | 94.1 | 42.9
11 | O=S(=O)(Nc1noc2ccccc12)c1cccc(-c2ccccc2)c1 [Example 70, N-(benzo[d]isoxazol-3-yl)-[1,1-biphenyl]-3-sulfonamide] | 36.8 | 32 | 31.3
12 | O=S(=O)(Nc1noc2ccccc12)c1ccc(C2CCCCC2)cc1 [Example 71, N-(benzo[d]isoxazol-3-yl)-4-cyclohexyl benzene-sulfonamide] | 28.4 | 21.6 | 11.6
13 | COc1cc(C)cc(C)c1S(=O)(=O)Nc1noc2cccc(OC)c12 [Example 72, 2-methoxy-N-(4-methoxybenzo[d]isoxazol-3-yl)-4,6-dimethylbenzene sulfonamide] | > 125 | 11.4 | 46.2
14 | COc1ccc(S(=O)(=O)Nc2noc3cccc(OC)c23)c(OC)c1 [Example 76, 2,4-dimethoxy-N-(4-methoxybenzo [d]isoxazol-3-yl)benzene sulfonamide] | 2.58 | 0.937 | 0.688
15 | COc1cccc2onc(NS(=O)(=O)c3c(C)ccc4cccnc34)c12 [Example 77, N-(4-methoxybenzo[d]isoxazol-3-yl)-7-methyl quinoline-8-sulfonamide] | 51.8 | 12 | 10.8
16 | COc1cccc2onc(NS(=O)(=O)c3cc(C)cc4cccnc34)c12 [Example 78, N-(4-methoxybenzo[d]isoxazol-3-yl)-6-methyl quinoline-8-sulfonamide] | > 125 | > 125 | 93.8
17 | COc1cccc2onc(NS(=O)(=O)c3cccc4c(C)ccnc34)c12 [Example 79, N-(4-methoxybenzo[d]isoxazol-3-yl)-4-methyl quinoline-8-sulfonamide] | 17.5 | 4.06 | 13.9
18 | COc1cccc2onc(NS(=O)(=O)c3cccc4cccnc34)c12 [Example 83, N-(4-methoxybenzo[d]isoxazol-3-yl)quinoline-8-sulfonamide] | 17.9 | 3.79 | 13.6
19 | COc1cccc2onc(NS(=O)(=O)c3ccc4c(c3)CCCC4)c12 [Example 84, N-(4-methoxybenzo[d]isoxazol-3-yl)-5,6,7,8-tetrahydro-naphthalene-2-sulfonamide] | 50.5 | 20 | 18.7
20 | COc1cc(OC)c(S(=O)(=O)Nc2noc3cccc(OC)c23)c(OC)c1 [Example 85, 2,4,6-trimethoxy-N-(4-methoxybenzo[d]isoxazol-3-yl)benzene sulfonamide] | 28.5 | 1.77 | 3.87
21 | COCc1ccccc1S(=O)(=O)Nc1noc2cccc(OC)c12 [Example 88, N-(4-methoxybenzo[d]isoxazol-3-yl)-2-(methoxymethyl)benzene-sulfonamide] | > 125 | 7.51 | 41.2
22 | COc1cccc2onc(NS(=O)(=O)c3ccccc3)c12 [Example 90, N-(4-Methoxybenzo[d]isoxazol-3-yl)benzenesulfonamide] | 90.7 | 18.9 | 4.78
23 | COc1ccc2cccnc2c1S(=O)(=O)Nc1noc2cccc(OC)c12 [Example 98, 7-Methoxy-N-(4-methoxybenzo[d]isoxazol-3-yl)quinoline-8-sulfonamide] | 31.3 | 3.41 | 5.6
24 | COc1ccc(Oc2ccccc2)cc1S(=O)(=O)Nc1noc2cccc(OC)c12 [Example 99, 2-Methoxy-N-(4-methoxybenzo[d]isoxazol-3-yl)-5-phenoxybenzenesulfonamide] | 9.7 | 5.74 | 2.1
25 | COc1ccc(C(F)(F)F)c(OC)c1S(=O)(=O)Nc1noc2cccc(OC)c12 [Example 101, 2,6-Dimethoxy-N-(4-methoxybenzo[d]isoxazol-3-yl)-3-(trifluoromethyl)benzenesulfonamide] | 98.2 | 32.8 | 3.8

Further lines, results first:

Row | IC50 (TIP60-KAT5) [µM] | IC50 (HBO-KAT7) [µM] | IC50 (MOZ-KAT6A) [µM] | Structure (SMILES)
26 | 69.3 | 5.93 | 0.81 | COCc1ccc2c(NS(=O)(=O)c3c(OC)cccc3OC)noc2c1 [Example 103, 2,6-Dimethoxy-N-(6-(methoxymethyl)benzo [d]isoxazol-3-yl)benzenesulfonamide]
27 | 28.1 | 3.13 | 0.786 | COc1cccc(OC)c1S(=O)(=O)Nc1noc2ccc(C)cc12 [Example 104, 2,6-Dimethoxy-N-(5-methylbenzo[d]isoxazol-3-yl)benzenesulfonamide]
28 | > 125 | 63.2 | 2.9 | COc1cccc(OC)c1S(=O)(=O)Nc1noc2cc(-n3nc(C)cc3C)ccc12 [Example 105]
29 | 14.3 | 3.98 | 0.782 | COc1cc2c(c(OC)c1S(=O)(=O)Nc1noc3cccc(OC)c13)CCC2 [Example 106, 4,6-Dimethoxy-N-(4-methoxybenzo[d]isoxazol-3-yl)-2,3-dihydro-1H-indene-5-sulfonamide]
30 | 41.9 | 2.04 | 3.09 | CCc1ccc(OC)c(S(=O)(=O)Nc2noc3ccc(Br)c(OC)c23)c1 [Example 108, N-(5-bromo-4-methoxybenzo[d]isoxazol-3-yl)-5-ethyl-2-methoxy benzenesulfonamide]
31 | > 125 | 17.5 | 7.89 | CCc1ccc(OC)c(S(=O)(=O)Nc2noc3cccc(COC)c23)c1 [Example 110, 5-Ethyl-2-methoxy-N-(4-(methoxymethyl)benzo [d]isoxazol-3-yl)benzenesulfonamide]
32 | 16.5 | 3.01 | 1.46 | CCOc1cccc2onc(NS(=O)(=O)c3cc(CC)ccc3OC)c12 [Example 112]
33 | 4.84 | 0.914 | 0.775 | COc1cc2c(cc1S(=O)(=O)Nc1noc3ccc(Br)cc13)CCCC2 [Example 113, N-(5-bromobenzo[d]isoxazol-3-yl)-3-methoxy-5,6,7,8-tetrahydronaphthalene-2-sulfonamide]
34 | 59.4 | 41.6 | 29.3 | Cc1ccc(Br)cc1S(=O)(=O)Nc1noc2cccc(Cl)c12 [Example 114, 5-Bromo-N-(4-chlorobenzo[d]isoxazol-3-yl)-2-methylbenzenesulfonamide]
35 | 23.7 | 95.5 | 29 | COC(=O)c1ccc(Cl)cc1S(=O)(=O)Nc1noc2cccc(Cl)c12 [Example 115, Methyl 4-chloro-2-(N-(4-chlorobenzo[d]isoxazol-3-yl)sulfamoyl)benzoate]
36 | > 125 | > 125 | 85.4 | O=S(=O)(Nc1noc2cccc(Cl)c12)c1ccc(F)c(F)c1F [Example 117, N-(4-Chlorobenzo[d]isoxazol-3-yl)-2,3,4-trifluorobenzenesulfonamide]
37 | 37.1 | 0.852 | 10 | Cc1cnc2c(S(=O)(=O)Nc3noc4cccc(Cl)c34)cccc2c1 [Example 118, N-(4-Chlorobenzo[d]isoxazol-3-yl)-3-methylquinoline-8-sulfonamide]
38 | 29 | 5.21 | 1.24 | CCc1ccc(OC)c(S(=O)(=O)Nc2noc3cccc(C(F)(F)F)c23)c1 [Example 121, 5-Ethyl-2-methoxy-N-(4-(trifluoromethyl)benzo[d]isoxazol-3-yl)benzenesulfonamide]
39 | 59.4 | 4.2 | 26.9 | O=S(=O)(Nc1noc2cccc(Cl)c12)c1cccc2cccnc12 [Example 123, N-(4-chlorobenzo[d]isoxazol-3-yl)quinoline-8-sulfonamide]
